Laboratory results reported in PMC6474802 (Journal of natural products, 2018).

Experiments:
Format in all cases: cell-based
TRPV1 = TRPV1 (Homo sapiens, UniProt Q8NER1)
TRPV4 = TRPV4 (Homo sapiens, UniProt Q9HBA0)
TRPM8 = TRPM8 (Homo sapiens, UniProt Q7Z2W7)
TRPM8, sequence (Q7Z2W7 whole entry): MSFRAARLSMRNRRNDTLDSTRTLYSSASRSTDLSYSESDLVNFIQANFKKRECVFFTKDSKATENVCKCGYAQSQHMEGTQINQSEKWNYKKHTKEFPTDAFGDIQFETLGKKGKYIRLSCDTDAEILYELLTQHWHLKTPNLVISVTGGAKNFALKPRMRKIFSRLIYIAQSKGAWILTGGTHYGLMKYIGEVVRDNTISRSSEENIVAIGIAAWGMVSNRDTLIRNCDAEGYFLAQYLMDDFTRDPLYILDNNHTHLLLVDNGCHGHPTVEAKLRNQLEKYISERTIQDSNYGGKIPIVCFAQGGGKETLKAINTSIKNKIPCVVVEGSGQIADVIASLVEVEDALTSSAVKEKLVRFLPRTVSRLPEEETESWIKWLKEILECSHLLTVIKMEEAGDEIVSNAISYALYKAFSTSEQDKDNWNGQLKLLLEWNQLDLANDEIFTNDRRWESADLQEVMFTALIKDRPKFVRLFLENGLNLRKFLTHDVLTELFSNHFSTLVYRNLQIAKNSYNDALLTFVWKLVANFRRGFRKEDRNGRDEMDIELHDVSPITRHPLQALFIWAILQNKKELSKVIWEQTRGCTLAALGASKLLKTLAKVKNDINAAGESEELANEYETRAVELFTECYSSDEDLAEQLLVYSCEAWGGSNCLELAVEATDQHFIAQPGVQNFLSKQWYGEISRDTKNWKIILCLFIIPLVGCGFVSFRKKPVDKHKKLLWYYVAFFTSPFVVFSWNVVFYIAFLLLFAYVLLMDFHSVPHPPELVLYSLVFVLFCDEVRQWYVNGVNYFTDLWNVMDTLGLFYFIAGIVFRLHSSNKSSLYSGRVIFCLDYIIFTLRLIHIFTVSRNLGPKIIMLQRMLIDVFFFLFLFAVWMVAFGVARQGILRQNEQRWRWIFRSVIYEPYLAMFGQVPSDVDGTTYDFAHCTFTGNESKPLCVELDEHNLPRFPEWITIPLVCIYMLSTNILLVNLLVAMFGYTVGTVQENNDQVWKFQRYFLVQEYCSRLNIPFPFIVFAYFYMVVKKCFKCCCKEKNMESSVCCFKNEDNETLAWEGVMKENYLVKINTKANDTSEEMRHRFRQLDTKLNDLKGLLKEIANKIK

TRPV4, sequence (Q9HBA0 whole entry): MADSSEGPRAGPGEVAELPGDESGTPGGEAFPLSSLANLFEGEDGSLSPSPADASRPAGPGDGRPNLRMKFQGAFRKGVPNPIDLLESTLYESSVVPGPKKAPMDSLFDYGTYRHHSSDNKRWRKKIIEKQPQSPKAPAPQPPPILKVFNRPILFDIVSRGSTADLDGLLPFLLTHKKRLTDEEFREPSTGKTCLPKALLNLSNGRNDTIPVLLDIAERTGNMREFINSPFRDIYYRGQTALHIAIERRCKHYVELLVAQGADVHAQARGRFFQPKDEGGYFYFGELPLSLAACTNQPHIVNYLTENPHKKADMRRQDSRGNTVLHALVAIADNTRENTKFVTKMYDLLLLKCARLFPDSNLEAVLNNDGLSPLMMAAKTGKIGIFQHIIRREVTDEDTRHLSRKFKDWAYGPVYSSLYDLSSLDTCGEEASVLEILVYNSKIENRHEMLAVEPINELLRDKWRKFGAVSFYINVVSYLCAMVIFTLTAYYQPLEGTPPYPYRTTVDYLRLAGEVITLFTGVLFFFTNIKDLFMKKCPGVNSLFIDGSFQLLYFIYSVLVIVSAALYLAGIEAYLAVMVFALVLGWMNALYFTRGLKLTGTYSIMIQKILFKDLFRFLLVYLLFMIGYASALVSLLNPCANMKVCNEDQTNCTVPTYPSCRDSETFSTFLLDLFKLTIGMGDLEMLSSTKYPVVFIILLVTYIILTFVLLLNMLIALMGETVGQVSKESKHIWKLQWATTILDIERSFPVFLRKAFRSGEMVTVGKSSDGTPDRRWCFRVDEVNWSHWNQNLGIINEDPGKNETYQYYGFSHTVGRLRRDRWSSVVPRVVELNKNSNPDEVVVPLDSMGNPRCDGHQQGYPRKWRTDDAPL
TRPV1, sequence (Q8NER1 whole entry): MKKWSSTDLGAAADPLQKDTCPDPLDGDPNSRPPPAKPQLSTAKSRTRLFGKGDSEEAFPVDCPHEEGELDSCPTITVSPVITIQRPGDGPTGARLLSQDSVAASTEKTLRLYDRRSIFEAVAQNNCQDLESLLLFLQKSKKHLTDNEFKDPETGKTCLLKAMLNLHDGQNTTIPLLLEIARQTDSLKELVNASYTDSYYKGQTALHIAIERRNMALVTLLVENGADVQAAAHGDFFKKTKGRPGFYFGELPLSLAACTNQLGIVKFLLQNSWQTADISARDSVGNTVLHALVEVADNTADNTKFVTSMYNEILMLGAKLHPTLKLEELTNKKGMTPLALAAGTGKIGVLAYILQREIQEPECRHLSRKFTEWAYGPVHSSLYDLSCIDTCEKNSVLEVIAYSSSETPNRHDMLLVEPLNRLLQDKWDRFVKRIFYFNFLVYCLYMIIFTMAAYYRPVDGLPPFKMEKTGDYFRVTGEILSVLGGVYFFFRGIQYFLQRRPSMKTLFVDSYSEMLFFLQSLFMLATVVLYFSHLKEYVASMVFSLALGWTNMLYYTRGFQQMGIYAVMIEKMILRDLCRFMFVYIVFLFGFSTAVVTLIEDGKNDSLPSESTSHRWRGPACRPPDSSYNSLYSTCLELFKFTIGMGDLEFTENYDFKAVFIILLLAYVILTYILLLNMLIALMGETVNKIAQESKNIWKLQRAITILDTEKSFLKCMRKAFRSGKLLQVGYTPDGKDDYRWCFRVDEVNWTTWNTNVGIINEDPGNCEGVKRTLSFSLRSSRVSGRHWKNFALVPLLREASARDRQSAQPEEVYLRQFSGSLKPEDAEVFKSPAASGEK

Substance | IC50 (TRPV1) [µM] | IC50 (TRPV4) [µM] | IC50 (TRPM8) [µM]
onydecalin A [compound 1] | ~81.6 | ~45.9 | –
Onydecalin D [compound 4] | – | – | 61.6
Onydecalin B [compound 2] | – | – | 18.5
